Experimental data reported in article PMC4834193 (Journal of medicinal chemistry, 2015).
Entries after “also recorded” stand apart in the source; their conditions may differ.

Assays:
CYP3A = assay: CYP inhibition, human liver microsomes; settings: substrate midazolam
[1] = Brain penetration study in CD1 mice; assay type: in vivo; settings: CD1, mouse, intraperitoneal, 10 mg/kg
hERG [2] = biological target: hERG (Homo sapiens, UniProt Q12809); assay: hERG inhibition, CHO cells, automated patch-clamp; assay type: cell-based
hERG (Homo sapiens, UniProt Q12809), sequence (Q12809 whole entry): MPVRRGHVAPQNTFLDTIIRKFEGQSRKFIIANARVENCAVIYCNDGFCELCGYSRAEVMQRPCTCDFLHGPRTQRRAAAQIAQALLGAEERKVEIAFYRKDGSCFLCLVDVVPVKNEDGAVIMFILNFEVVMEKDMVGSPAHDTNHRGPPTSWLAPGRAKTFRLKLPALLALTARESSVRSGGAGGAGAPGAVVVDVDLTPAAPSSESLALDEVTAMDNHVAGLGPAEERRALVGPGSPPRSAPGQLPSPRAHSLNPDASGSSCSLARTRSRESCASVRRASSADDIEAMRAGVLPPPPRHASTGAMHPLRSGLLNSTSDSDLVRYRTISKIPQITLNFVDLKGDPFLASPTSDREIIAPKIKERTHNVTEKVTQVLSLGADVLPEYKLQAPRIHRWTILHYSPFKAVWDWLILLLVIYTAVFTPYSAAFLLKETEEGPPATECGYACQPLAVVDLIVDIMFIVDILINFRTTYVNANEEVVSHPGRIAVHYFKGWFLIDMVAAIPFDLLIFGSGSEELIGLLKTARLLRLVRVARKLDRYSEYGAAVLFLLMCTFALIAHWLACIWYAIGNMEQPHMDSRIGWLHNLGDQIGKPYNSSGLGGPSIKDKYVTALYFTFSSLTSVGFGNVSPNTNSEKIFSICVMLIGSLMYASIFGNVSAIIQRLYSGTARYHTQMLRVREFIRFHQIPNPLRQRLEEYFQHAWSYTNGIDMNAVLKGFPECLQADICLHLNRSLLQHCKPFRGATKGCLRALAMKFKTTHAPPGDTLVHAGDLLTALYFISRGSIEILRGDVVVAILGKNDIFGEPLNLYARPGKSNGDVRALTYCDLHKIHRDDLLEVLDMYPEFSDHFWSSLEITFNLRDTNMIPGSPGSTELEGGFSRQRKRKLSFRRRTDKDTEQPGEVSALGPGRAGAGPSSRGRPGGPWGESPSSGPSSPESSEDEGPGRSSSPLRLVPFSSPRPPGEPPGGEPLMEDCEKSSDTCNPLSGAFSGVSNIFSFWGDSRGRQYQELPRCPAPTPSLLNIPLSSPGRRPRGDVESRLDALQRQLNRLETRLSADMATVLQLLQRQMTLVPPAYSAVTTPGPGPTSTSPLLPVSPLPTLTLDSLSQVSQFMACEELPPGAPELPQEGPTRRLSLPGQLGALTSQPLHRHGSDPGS

C57BL/6J mice = assay: Amphetamine-induced hyperactivity, open field activity; settings: 3 mg/kg AMPH; for AMPH-stimulated hyperlocomotion at 20 mg/kg: 20 mg/kg ip; for AMPH-stimulated hyperlocomotion: 10 or 20 mg/kg ip, relative to Veh–AMPH group
[3] = system: TA98, TA100, TA1535, and TA1537 strains; assay type: cell-based; settings: with/without S9, 10, 50, and 100 µM
human 5-HT2B [4] = biological target: T1, human 5-HT2B (Homo sapiens, UniProt P41595); assay: Calcium flux
T1 sequence (P41595 whole entry): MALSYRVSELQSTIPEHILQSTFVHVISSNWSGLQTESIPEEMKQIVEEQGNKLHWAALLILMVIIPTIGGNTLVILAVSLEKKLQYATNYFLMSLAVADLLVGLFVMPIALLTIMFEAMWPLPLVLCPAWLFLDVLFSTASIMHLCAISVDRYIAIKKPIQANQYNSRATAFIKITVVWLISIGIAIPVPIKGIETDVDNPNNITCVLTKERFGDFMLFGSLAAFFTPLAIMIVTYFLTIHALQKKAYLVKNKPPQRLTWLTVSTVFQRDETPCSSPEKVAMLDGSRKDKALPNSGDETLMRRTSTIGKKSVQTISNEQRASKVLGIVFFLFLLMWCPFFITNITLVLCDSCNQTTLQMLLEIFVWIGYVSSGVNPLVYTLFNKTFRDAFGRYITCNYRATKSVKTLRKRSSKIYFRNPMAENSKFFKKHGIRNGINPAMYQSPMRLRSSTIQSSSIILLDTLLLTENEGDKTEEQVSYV

5-HT2C receptor = biological target: T2, 5-HT2C receptor (Homo sapiens, UniProt P28335); assay: PDSP binding study, 5-HT2C
T2 sequence (P28335 33-458): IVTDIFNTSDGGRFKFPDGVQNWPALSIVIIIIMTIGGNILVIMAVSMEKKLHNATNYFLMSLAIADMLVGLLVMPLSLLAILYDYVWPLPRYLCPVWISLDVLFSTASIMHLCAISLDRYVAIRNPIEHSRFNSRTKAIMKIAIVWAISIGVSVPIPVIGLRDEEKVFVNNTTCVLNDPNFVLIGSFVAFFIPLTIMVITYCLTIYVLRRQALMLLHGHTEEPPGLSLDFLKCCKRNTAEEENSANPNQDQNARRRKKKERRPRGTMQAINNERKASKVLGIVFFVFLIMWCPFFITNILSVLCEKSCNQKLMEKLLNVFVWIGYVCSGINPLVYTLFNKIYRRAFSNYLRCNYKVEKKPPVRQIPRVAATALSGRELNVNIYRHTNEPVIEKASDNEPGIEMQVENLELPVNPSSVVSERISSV

human 5-HT2B [5] = biological target: T1, human 5-HT2B; assay: PDSP binding study, 5-HT2B
human 5-HT2A = human 5-HT2A (Homo sapiens, UniProt P28223); assay: Calcium flux; settings: from functional EC50 values
human 5-HT2A, sequence (P28223 whole entry): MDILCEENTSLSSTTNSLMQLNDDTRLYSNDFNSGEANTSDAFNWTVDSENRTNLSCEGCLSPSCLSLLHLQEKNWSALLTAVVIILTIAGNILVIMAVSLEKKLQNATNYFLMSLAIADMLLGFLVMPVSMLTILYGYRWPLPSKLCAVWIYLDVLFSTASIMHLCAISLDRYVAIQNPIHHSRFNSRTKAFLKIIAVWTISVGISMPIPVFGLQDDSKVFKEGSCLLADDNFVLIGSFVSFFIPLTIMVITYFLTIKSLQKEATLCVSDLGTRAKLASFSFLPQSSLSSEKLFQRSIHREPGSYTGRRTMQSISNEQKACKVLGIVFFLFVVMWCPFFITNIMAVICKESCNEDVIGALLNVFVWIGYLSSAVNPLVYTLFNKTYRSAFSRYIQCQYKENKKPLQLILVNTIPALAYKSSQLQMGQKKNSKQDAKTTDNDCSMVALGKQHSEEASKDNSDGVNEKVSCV

[6] = cited from earlier work
human 5-HT2B [7] = biological target: T1, human 5-HT2B; settings: cited from earlier work
hERG [8] = settings: previous studies; cited from earlier work
5-HT2A = settings: cited from earlier work
[9] = clinical trials, compared to placebo group; cited from earlier work

For `C=CCOc1ccc(Cl)cc1[C@H]1C[C@@H]1CN.O=C(O)C(F)(F)F` [(+)-13h], the “CYP inhibition at 10 µM, 3A” value (CYP3A) was 27%.
For `C=C(F)COc1ccc(Cl)cc1[C@H]1C[C@@H]1CN.Cl` [(+)-13j], the concentration at 0.5 h ([1]; brain) was 17500 ng/g, the concentration at 2 h ([1]; brain) was 14700 ng/g and the concentration at 0.5 h ([1]; plasma) was 1440 ng/mL. For the same molecule, the concentration at 2 h ([1]; plasma) was 903 ng/mL, the “hERG IC50” value (hERG [2]) was “moderate inhibition” and the “AMPH-stimulated hyperlocomotion at 20 mg/kg” value (C57BL/6J mice) was “most efficacious”. The AMPH-stimulated hyperlocomotion (C57BL/6J mice) was “dose dependently suppressed the hyperactivity” and the Ames fluctuation test [3] was “negative”.
For `C=C(C)COc1ccc(Cl)cc1[C@H]1C[C@@H]1CN` [(+)-13k], the EC50 (human 5-HT2B [4]) was 6.09 µM and the Emax (human 5-HT2B [4]; read-out: Emax 5-HT2B, normalized to internal 5-HT reference) was 39%.
Molecule `Cl.NC[C@H]1C[C@@H]1c1cc(Cl)ccc1OCCF` [(+)-13l] has a concentration at 0.5 h ([1]; brain) of 12800 ng/g, a concentration at 2 h ([1]; brain) of 13400 ng/g and a concentration at 0.5 h ([1]; plasma) of 1200 ng/mL. For the same molecule, the concentration at 2 h ([1]; plasma) was 874 ng/mL and the AMPH-stimulated hyperlocomotion (C57BL/6J mice) was “not differentiated by dose”.
For `C=CCOc1ccc(F)cc1[C@H]1C[C@@H]1CN.Cl` [(+)-16b, (+)-((1S,2S)-2-(2-(Allyloxy)-5-fluorophenyl)cyclopropyl)-methanamine Hydrochloride], the “AMPH-stimulated hyperlocomotion at 20 mg/kg” value (C57BL/6J mice) was “most efficacious; also recorded: completely reversed”, the AMPH-stimulated hyperlocomotion (C57BL/6J mice) was “dose dependently suppressed the hyperactivity” and the Ki (5-HT2C receptor) was 0.03 to 0.05 µM. The Ki (human 5-HT2B [5]) was 0.03 to 0.05 µM.
For `Cl.NC[C@H]1C[C@@H]1c1cc(F)ccc1OCCF` [(+)-16d, (+)-((1S,2S)-2-(5-Fluoro-2-(2-fluoroethoxy)phenyl)-cyclopropyl)methanamine Hydrochloride], the “selectivity for 5-HT2C against 5-HT2A” value (human 5-HT2A) was greater than 100 fold, the AMPH-stimulated hyperlocomotion (C57BL/6J mice) was “not differentiated by dose” and the Ki (5-HT2C receptor) was 0.03 to 0.05 µM. It also gave a Ki (human 5-HT2B [5]) of 0.03 to 0.05 µM.
For `Clc1cccc(COc2cncc(N3CCNCC3)n2)c1` [CP-809,101, 2-(3-chlorobenzyloxy)-6-(piperazinyl)-pyrazine], the genotoxicity [6] is given as “genotoxicity” and the “5-HT2C selectivity against 5-HT2B” value (human 5-HT2B [7]) is given as “about 600 fold”.
For `NC[C@H]1C[C@@H]1c1cc(F)ccc1OCC1CC1` [Compound 8], the hERG inhibition (hERG [8]) is given as “no hERG inhibition”.
For `c1cc2c3c(c1)[C@H]1CCC[C@H]1N3CCNC2` [WAY-163909, (7bR,10aR)-1,2,3,4,8,9,10,10a–octahydro-7bH-cyclopenta-[b][1,4]diazepino[6,7,1-hi]indole], the “agonist activity at 5-HT2A” value (5-HT2A) is given as “no agonist activity”.
For `C[C@H]1CNCCc2ccc(Cl)cc21` [lorcaserin], the “incidence of cardiac valve disorders” value [9] is given as “higher incidence of cardiac valve disorders”.
